Data: patent US11332459B2 (TEIJIN PHARMA LIMITED, priority 2017, dated 2022)
pIC50: −log10 of the molar value. Structures can show the parent of a compound that is named as a salt.

Molecular target: T1, human TRPC6 (Homo sapiens, UniProt Q9Y210)
T1 construct: expressed in transfected cells
T1 sequence (Q9Y210 1-931): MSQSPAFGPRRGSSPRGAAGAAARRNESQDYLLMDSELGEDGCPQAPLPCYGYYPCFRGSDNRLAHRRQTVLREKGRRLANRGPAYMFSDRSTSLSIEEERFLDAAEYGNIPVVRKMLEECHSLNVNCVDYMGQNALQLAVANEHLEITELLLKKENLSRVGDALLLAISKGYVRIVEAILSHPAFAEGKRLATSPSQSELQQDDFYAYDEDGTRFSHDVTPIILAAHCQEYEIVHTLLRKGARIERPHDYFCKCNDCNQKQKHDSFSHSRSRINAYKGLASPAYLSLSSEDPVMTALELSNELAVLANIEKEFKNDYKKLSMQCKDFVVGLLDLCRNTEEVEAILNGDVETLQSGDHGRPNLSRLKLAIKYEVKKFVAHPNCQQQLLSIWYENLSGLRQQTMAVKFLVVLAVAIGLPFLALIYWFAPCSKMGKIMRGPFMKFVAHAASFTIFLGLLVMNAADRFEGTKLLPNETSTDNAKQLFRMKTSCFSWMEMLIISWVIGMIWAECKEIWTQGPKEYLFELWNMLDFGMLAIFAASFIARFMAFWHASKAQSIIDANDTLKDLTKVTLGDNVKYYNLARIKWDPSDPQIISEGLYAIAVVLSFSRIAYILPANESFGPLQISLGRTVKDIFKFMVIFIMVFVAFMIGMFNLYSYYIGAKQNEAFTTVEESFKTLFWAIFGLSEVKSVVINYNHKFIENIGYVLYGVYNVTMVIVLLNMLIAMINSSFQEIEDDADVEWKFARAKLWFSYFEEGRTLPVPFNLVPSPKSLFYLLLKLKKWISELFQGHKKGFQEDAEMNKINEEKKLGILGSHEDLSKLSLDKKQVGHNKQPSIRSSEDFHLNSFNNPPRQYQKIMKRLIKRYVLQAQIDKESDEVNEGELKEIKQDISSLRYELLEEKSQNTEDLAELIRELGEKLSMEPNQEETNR
Assay: TRPC6 calcium flux assay (FLIPR, OAG-stimulated calcium influx)
Format: cell-based
Details: HEK293 cells stably transfected with human TRPC6, read-out: hTRPC6 Potency
Description: Biological Example 1 TRPC6 Calcium Flux Assay
Potency of TRPC6 (Transient receptor potential channel family C6) inhibitors were measured by their inhibition of Calcium influx trigged by […] (1-Oleoyl-2-acetyl-sn-glycerol, Millipore Sigma, O6754) stimulation on HEK293 cells stablely transfected with human TRPC6 using a FLIPR tetra system. Cells were grown in a humidified environment at 37° C. under 5% CO2 using the growth medium with the following selective reagents (Dulbecco's Modified Eagle's Medium (DMEM) high glucose, 10% Fetal Bovine Serum, 1×PSGlu (penicillin-streptomycin glutamine), 1×NEAA (Non-essential amino acid), 1× Na Pyruvate and 200 ug/ml Hygromycin). For general passage, cells were grown to 70-90% confluency; the media was removed, and the cells were gently washed 2 times with calcium and magnesium free PBS (phosphate-buffered saline). Trypsin (3 mL) was applied for 5 minutes at 37° C. The cells were dislodged by rapping flask against base of a hand and 7 mL of growth medium was added to deactivate trypsin and re-suspend cells. The usual splitting schedule was 1:5 every 2-3 days.
Cells were plated the day before the assay, plating cell density is 1.0-1.5×10^4/25 μl/well in poly-D-lysine (PDL) coated 384-well plates using either multichannel pipettes or multidrop. These cells were first incubated with fluorescence dye at room temperature for 90-120 minutes after they were grown on PDL-coated 384-well black plates overnight (Dye loading buffer 10 ml example: 9 mL assay buffer, 1 mL, 10×PBX signal enhancer, 10 μL Calcium indicator). The cells were incubated with a dose of compounds for 25 minutes before being stimulated with TRPC6 agonist OAG. The OAG solution was prepared by adding OAG into assay buffer (Ca ringer solution base: 10 mM HEPES (4-(2-hydroxyethyl)-1-piperazine-ethanesulfonic acid), 4 mM MgCl2, 120 mM NaCl, 5 mM KCl, pH=7.2 @25° C.)+0.1% BSA+2 mM CaCl2) to the concentration of 0.2 mM/2% DMSO, which achieves a final on cell concentration of 50 uM/0.5% DMSO. 12.5 uL OAG mixture was added and the activation of the TRPC6 channel was measured by the change of intracellular Calcium levels on FLIPR terra system.
Data was acquired by measuring the fluorescent peak signal subtracted from the background during the 180 second imaging frame. Each data point is further normalized to 100% of OAG triggered signal vs. buffer. Table 16 provides the IC50 for each compound, which data is obtained by plotting peak signal over the compound dose.

| SMILES | pIC50 |
| --- | --- |
| Cc1nnc(Cn2c(N3CC[C@@H](F)[C@H](N)C3)nc3ccc(F)cc32)s1 [Example 561, (3R,4R)-4-fluoro-1-(6-fluoro-1-((5-methyl-1,3,4-thiadiazol-2-yl)methyl)-1H-benzo[d]imidazol-2-yl)piperidin-3-amine] | 7.70 |
| N#Cc1ccc2nc(N3CC[C@H](F)[C@H](N)C3)n(CC(=O)N3CCC3)c2c1 [Example 287, 2-((3R,4S)-3-amino-4-fluoro-1-piperidinyl)-1-(2-(1-azetidinyl)-2-oxoethyl)-1H-benzimidazole-6-carbonitrile] | 7.97 |
| N#Cc1ccc(Cn2c(N3CCC[C@H](N)C3)nc3c(Cl)cccc32)cc1 [Example 418, (S)-4-((2-(3-aminopiperidin-1-yl)-4-chloro-1H-benzo[d]imidazol-1-yl)methyl)benzonitrile 2,2,2-trifluoroacetate] | 9.23 |
| CN(CC(F)(F)F)C(=O)Cn1c(N2CC[C@@H](F)[C@H](N)C2)nc2cc(F)c(F)cc21 [Example 500, 2-(2-((3R,4R)-3-amino-4-fluoropiperidin-1-yl)-5,6-difluoro-1H-benzo[d]imidazol-1-yl)-N-methyl-N-(2,2,2-trifluoroethyl)acetamide] | 8.29 |
| N[C@@H]1CN(c2nc3ccc(F)cc3n2Cc2nc(C(F)(F)F)no2)CC[C@H]1F [Example 569, (3R,4R)-4-fluoro-1-(6-fluoro-1-((3-(trifluoromethyl)-1,2,4-oxadiazol-5-yl)methyl)-1H-benzo[d]imidazol-2-yl)piperidin-3-amine] | 7.11 |
| CN[C@H]1CCCN(c2nc3ccccc3n2[C@H](C)c2ccc(C#N)cn2)C1 [Example 255, 6-((1R)-1-(2-((3S)-3-(methylamino)-1-piperidinyl)-1H-benzimidazol-1-yl)ethyl)-3-pyridinecarbonitrile] | 6.99 |
| N[C@@H]1CN(c2nc3cc(F)c(F)cc3n2CC(=O)N2CC(n3cncn3)C2)CC[C@H]1F [Example 641, 1-(3-(1H-1,2,4-triazol-1-yl)azetidin-1-yl)-2-(2-((3R,4R)-3-amino-4-fluoropiperidin-1-yl)-5,6-difluoro-1H-benzo[d]imidazol-1-yl)ethanone] | 5.89 |
| N#Cc1ccc(Cn2c(N3CC[C@H](F)[C@H](N)C3)nc3ccc(F)cc32)nc1 [Example 47, 6-((2-((3R,4S)-3-amino-4-fluoropiperidin-1-yl)-6-fluoro-1H-benzo[d]imidazol-1-yl)methyl)nicotinonitrile hydrochloride] | 9.16 |
| N#Cc1ccc(Cn2c(N3CCC[C@H](N)C3)nc3c(F)cc(F)cc32)nc1 [Example 61, (S)-6-((2-(3-aminopiperidin-1-yl)-4,6-difluoro-1H-benzo[d]imidazol-1-yl)methyl)nicotinonitrile] | 8.57 |
| N[C@@H]1CN(c2nc3cc(F)cnc3n2Cc2ncc(Cl)cn2)CC[C@H]1F [Example 583] | 6.38 |
| N#Cc1ccc(Cn2c(N3CC[C@H](F)[C@H](N)C3)nc3ccc(Cl)cc32)cc1 [Example 401, 4-((2-((3R,4S)-3-amino-4-fluoropiperidin-1-yl)-6-chloro-1H-benzo[d]imidazol-1-yl)methyl)benzonitrile hydrochloride] | 9.34 |
| C[C@@H](C(=O)N(C)C)n1c(N2CC[C@@H](F)[C@H](N)C2)nc2cc(F)c(F)cc21 [Example 280, (2S)-2-(2-((3R,4R)-3-amino-4-fluoro-1-piperidinyl)-5,6-difluoro-1H-benzimidazol-1-yl)-N,N-dimethylpropanamide] | 8.83 |
| N#Cc1ccccc1Cn1c(N2CC[C@@H](F)[C@H](N)C2)nc2cc(F)c(F)cc21 [Example 353, 2-((2-((3R,4R)-3-amino-4-fluoro-1-piperidinyl)-5,6-difluoro-1H-benzimidazol-1-yl)methyl)benzonitrile] | 7.51 |
| CC(N(C)C(=O)Cn1c(N2CC[C@@H](F)[C@H](N)C2)nc2cc(F)c(F)cc21)C(F)(F)F (mixture of isomers) [Example 614, 2-(2-((3R,4R)-3-amino-4-fluoropiperidin-1-yl)-5,6-difluoro-1H-benzo[d]imidazol-1-yl)-N-methyl-N-(1,1,1-trifluoropropan-2-yl)acetamide] | 7.61 |

Second part, the compound after the results:

| pIC50 | SMILES |
| --- | --- |
| 6.12 | N[C@@H]1CN(c2nc3cc(F)c(F)cc3n2CC(=O)N(Cc2cccs2)C2CCS(=O)(=O)C2)CC[C@H]1F (mixture of isomers) [Example 522, 2-(2-((3R,4R)-3-amino-4-fluoropiperidin-1-yl)-5,6-difluoro-1H-benzo[d]imidazol-1-yl)-N-(1,1-dioxidotetrahydrothiophen-3-yl)-N-(thiophen-2-ylmethyl)acetamide] |
| 7.96 | N#Cc1ccc(Cn2c(N3C[C@@H]4CC[C@H](N)[C@@H]4C3)nc3ccccc32)nc1 [Example 77, 6-((2-((3aS,4S,6aR)-4-aminohexahydrocyclopenta[c]pyrrol-2(1H)-yl)-1H-benzo[d]imidazol-1-yl)methyl)nicotinonitrile hydrochloride] |
| 6.26 | N[C@@H]1CN(c2nc3cc(F)ccc3n2Cc2nc(C(F)(F)F)no2)CC[C@H]1F [Example 584, (3R,4R)-4-fluoro-1-(5-fluoro-1-((3-(trifluoromethyl)-1,2,4-oxadiazol-5-yl)methyl)-1H-benzo[d]imidazol-2-yl)piperidin-3-amine] |
| 9.49 | CNC(=O)Cn1c(N2CC[C@@H](F)[C@H](N)C2)nc2cc(F)c(F)cc21 [Example 275, 2-(2-((3R,4R)-3-amino-4-fluoro-1-piperidinyl)-5,6-difluoro-1H-benzimidazol-1-yl)-N-methylacetamide] |
| < 5.43 | N[C@@H]1CN(c2nc3cc(F)c(F)cc3n2CC(=O)N2CC3(CCOCC3)C2)CC[C@H]1F [Example 431, 2-(2-((3R,4R)-3-amino-4-fluoropiperidin-1-yl)-5,6-difluoro-1H-benzo[d]imidazol-1-yl)-1-(7-oxa-2-azaspiro[3.5]nonan-2-yl)ethanone] |
| 8.65 | N#Cc1ccc(Cn2c(N3CC[C@H](F)[C@H](N)C3)nc3ccccc32)cc1 [Example 172, 4-((2-((3R,4S)-3-amino-4-fluoropiperidin-1-yl)-1H-benzo[d]imidazol-1-yl)methyl)benzonitrile] |
| < 4.30 | C[C@H](c1ccc(C#N)cn1)n1c(N2CC[C@@H]3OCCN[C@H]3C2)nc2c(F)cc(F)cc21 [Example 268, 6-((1R)-1-(4,6-difluoro-2-((4aS,8aS)-hexahydro-2H-pyrido[4,3-b][1,4]oxazin-6(5H)-yl)-1H-benzimidazol-1-yl)ethyl)-3-pyridinecarbonitrile] |
| < 5.76 | CN(CC(F)(F)F)C(=O)Cn1c(N2CCC(F)(CN)C2)nc2ccc(F)cc21 (centres unmarked) [Example 486, 2-(2-(3-(aminomethyl)-3-fluoropyrrolidin-1-yl)-6-fluoro-1H-benzo[d]imidazol-1-yl)-N-methyl-N-(2,2,2-trifluoroethyl)acetamide] |
| 8.41 | N[C@H]1CCCN(c2nc3ccccc3n2Cc2ccc(Cl)cn2)C1 [Example 209, (S)-1-(1-((5-chloropyridin-2-yl)methyl)-1H-benzo[d]imidazol-2-yl)piperidin-3-amine] |
